Reference: ChEMBL document CHEMBL4715869, “N-(Pyrimidin-2-yl)-1,2,3,4-tetrahydroisoquinolin-6-amine Derivatives as Selective Janus Kinase 2 Inhibitors for the Treatment of Myeloproliferative Neoplasms” (J Med Chem, 2020)
pIC50: −log10 of the molar value.

Legend:
[1] = system: SET-2; experiment: Antitumor activity against human SET2 cells xenografted in NOD/SCID mouse assessed as tumor growth inhibition at 60 mg/kg, po qd administered for 16 days and measured every 2 days relative to control; type: functional; conditions: SET-2, po, 384 h, time 16 day, read-out: TGI
[2] = system: BaF3; experiment: Antitumor activity against mouse BAF3 cells harboring JAK2 V617F mutant implanted in Balb/c mouse assessed as decrease in liver weight at 60 mg/kg, po qd administered starting from day 4 to 20 and measured on day 25 relative to control; type: functional; design: scale not given: the % may be the effect or the level left; conditions: time 21 day
[3] = Inhibition of JAK2 V617F mutant in mouse BaF3 cells assessed as reduction in cell viability incubated for 72 hrs by MTT assay
[4] = system: Receptor-type tyrosine-protein kinase FLT3 (Homo sapiens), P36888 [UNDEFINED MUTATION]; experiment: Inhibition of FLT3 ITD mutant in human MOLM13 cells assessed as residual activity at 100 nM relative to control; type: cell-based; conditions: MOLM-13
Sequence of Receptor-type tyrosine-protein kinase FLT3 (Homo sapiens), P36888 [UNDEFINED MUTATION] (P36888 whole entry, looked up, change not shown): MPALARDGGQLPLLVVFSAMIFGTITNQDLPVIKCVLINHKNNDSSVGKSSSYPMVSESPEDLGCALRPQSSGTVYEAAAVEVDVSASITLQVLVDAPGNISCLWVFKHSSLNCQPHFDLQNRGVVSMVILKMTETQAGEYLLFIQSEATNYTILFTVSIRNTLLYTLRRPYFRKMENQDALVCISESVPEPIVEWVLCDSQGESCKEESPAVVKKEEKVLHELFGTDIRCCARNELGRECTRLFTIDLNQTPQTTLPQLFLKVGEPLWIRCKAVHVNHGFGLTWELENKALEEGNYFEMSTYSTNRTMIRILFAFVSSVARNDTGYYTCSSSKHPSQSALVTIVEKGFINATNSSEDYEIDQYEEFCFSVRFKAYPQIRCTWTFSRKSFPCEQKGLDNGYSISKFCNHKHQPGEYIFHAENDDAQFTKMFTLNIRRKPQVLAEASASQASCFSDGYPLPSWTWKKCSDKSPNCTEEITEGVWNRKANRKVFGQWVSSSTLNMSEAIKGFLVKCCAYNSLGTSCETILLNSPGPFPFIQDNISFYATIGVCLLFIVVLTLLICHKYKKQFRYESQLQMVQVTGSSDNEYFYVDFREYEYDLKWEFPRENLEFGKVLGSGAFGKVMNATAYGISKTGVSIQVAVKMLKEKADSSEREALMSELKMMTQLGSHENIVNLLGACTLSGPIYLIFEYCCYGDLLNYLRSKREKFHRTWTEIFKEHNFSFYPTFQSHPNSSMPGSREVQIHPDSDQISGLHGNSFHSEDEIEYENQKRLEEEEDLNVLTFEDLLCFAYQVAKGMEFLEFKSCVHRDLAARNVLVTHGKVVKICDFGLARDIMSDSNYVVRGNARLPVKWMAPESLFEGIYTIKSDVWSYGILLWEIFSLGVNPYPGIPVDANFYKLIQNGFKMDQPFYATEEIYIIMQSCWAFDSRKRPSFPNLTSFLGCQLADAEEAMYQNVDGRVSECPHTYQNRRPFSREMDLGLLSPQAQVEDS

SMILES | inhibition in vivo at 60 mg/kg [1] [%] | Activity [2] [%] | pIC50 [3] | Activity [4] [%]
N#CC[C@H](C1CCCC1)n1cc(-c2ncnc3[nH]ccc23)cn1 [RUXOLITINIB] | 52.8 | 80.4 | – | –
Cc1cnc(Nc2ccc(N3CCC(N(C)CCO)CC3)c(F)c2)nc1-c1cnn(C(C)C)c1 | – | – | 6.84 | 5
